# ChEMBL document CHEMBL3351642, “Synthesis and structure-activity relationships of PI3K/mTOR dual inhibitors from a series of 2-amino-4-methylpyrido[2,3-d]pyrimidine derivatives” (Bioorg Med Chem Lett, 2014)
# Columns and labels:
# [1] = target: Phosphatidylinositol 4,5-bisphosphate 3-kinase catalytic subunit alpha isoform (Homo sapiens, UniProt P42336); assay: Inhibition of PI3Kalpha (unknown origin) using PIP2/PS as substrate preincubated for 15 mins before substrate addition by luciferase-based luminescence assay
# Phosphatidylinositol 4,5-bisphosphate 3-kinase catalytic subunit alpha isoform, sequence (P42336 whole entry, canonical isoform): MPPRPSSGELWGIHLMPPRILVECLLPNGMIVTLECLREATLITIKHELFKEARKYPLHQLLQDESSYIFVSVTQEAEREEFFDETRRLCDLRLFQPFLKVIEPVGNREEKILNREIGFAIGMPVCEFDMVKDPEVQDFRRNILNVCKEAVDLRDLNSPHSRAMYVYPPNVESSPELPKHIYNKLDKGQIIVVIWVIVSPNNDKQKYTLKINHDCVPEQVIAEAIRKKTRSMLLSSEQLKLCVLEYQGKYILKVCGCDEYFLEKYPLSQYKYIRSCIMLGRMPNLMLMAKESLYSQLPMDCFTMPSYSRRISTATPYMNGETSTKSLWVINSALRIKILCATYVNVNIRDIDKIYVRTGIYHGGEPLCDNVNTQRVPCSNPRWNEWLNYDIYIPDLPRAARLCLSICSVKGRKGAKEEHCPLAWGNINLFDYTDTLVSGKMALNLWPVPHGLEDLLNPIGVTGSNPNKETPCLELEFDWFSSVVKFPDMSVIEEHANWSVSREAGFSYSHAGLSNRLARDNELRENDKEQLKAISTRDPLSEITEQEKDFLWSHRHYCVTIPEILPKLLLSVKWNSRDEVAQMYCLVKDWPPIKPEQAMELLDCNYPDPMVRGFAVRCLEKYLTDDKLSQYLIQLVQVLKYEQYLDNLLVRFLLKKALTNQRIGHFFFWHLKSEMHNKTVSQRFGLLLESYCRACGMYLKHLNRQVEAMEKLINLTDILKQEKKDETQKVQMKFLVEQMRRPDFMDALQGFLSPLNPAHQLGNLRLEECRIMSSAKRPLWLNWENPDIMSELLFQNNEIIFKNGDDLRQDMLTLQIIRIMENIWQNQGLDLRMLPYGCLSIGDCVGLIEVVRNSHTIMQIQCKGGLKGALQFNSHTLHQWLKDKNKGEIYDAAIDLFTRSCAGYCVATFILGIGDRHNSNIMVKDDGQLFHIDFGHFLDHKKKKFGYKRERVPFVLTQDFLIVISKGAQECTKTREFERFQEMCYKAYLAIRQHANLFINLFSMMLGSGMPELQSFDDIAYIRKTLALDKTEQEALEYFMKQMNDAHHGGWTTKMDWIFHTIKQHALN
# [2] = target: Serine/threonine-protein kinase mTOR (Homo sapiens, UniProt P42345); assay: Inhibition of mTOR (unknown origin) assessed as inhibition of 4EBP-1 phosphorylation preincubated for 15 mins before substrate addition by TR-FRET assay
# [3] = Antiproliferative activity against human SKOV3 cells after 3 days by CellTiter-Glo assay; conditions: SK-OV-3, 72 h
# [4] = Antiproliferative activity against human U87MG cells after 4 days by CellTiter-Glo assay; conditions: U-87 MG, 96 h
# [5] = Apparent permeability from apical to basolateral side of human Caco2 cells at 10 uM after 90 mins by LC/MS/MS analysis; type: ADME, cell-based; conditions: Caco-2
# [6] = Apparent permeability from basolateral to apical side of human Caco2 cells at 10 uM after 90 mins by LC/MS/MS analysis; type: ADME, cell-based; conditions: Caco-2
# [7] = Efflux ratio of apparent permeability from basolateral to apical side to apical to basolateral of human Caco2 cells; type: ADME, cell-based; conditions: Caco-2
SMILES,IC50 [1] [nM],IC50 [2] [nM],further results
Cc1nc(N)nc2ncc(-c3cnc4[nH]cc(NS(=O)(=O)c5ccc(F)cc5F)c4c3)cc12,76.5,,
COc1ncc(-c2cnc3nc(N)nc(C)c3c2)cc1NS(=O)(=O)c1ccccc1,63.1,79.2,
CCCCS(=O)(=O)Nc1cc(-c2cnc3nc(N)nc(C)c3c2)cnc1OC,47.5,,
COc1ncc(-c2cnc3nc(N)nc(C)c3c2)cc1NS(=O)(=O)c1ccc(C#N)cc1,2.82,45.8,"IC50 [3]: 9150 nM; IC50 [4]: 2440 nM; Papp A→B at 1.5 h, 10 µM [5]: 1.04 ×10⁻⁶ cm/s; Papp B→A at 1.5 h, 10 µM [6]: 14 ×10⁻⁶ cm/s; efflux ratio [7]: 13.5"
COc1ncc(-c2cnc3nc(N)nc(C)c3c2)cc1NS(=O)(=O)c1ccc(C(F)(F)F)cc1,8.41,67,
COc1ncc(-c2cnc3nc(N)nc(C)c3c2)cc1NS(=O)(=O)C1CC1,55.6,,
COc1ccc(-c2cc3c(C)nc(N)nc3n([C@H]3CC[C@H](OCCO)CC3)c2=O)cn1 [PF-04691502],,,"IC50 [3]: 290 nM; IC50 [4]: 520 nM; Papp A→B at 1.5 h, 10 µM [5]: 25.7 ×10⁻⁶ cm/s; Papp B→A at 1.5 h, 10 µM [6]: 32.5 ×10⁻⁶ cm/s"
COc1ncc(-c2cnc3nc(N)nc(C)c3c2)cc1NS(=O)(=O)c1cccs1,23.3,245,
Cc1nc(N)nc2ncc(-c3cnc4[nH]nc(NS(=O)(=O)c5ccc(F)cc5F)c4c3)cc12,82.4,,

# Continued, in another order:
IC50 [1] [nM],IC50 [2] [nM],SMILES,further results
145,,COc1ncc(-c2cnc3nc(N)nc(C)c3c2)cc1NS(C)(=O)=O,
7.82,111,COc1ncc(-c2cnc3nc(N)nc(C)c3c2)cc1NS(=O)(=O)c1cccnc1,
> 1000,,COc1ncc(-c2cnc3nc(N)nc(C)c3c2)cc1NC(=O)Nc1ccc(F)cc1F,
67,180,COc1ccc(S(=O)(=O)Nc2cc(-c3cnc4nc(N)nc(C)c4c3)cnc2OC)cc1,
414,,COc1ccc(-c2cnc3nc(N)nc(C)c3c2)cn1,
218,,COc1ncc(-c2cnc3nc(N)nc(C)c3c2)cn1,
> 1000,,COc1ncc(-c2cnc3nc(N)nc(C)c3c2)cc1NC(=O)c1ccc(F)cc1F,
38,,Cc1nc(N)nc2ncc(-c3cnc4[nH]ccc4c3)cc12,
> 1000,,COc1ncc(-c2cnc3nc(N)nc(C)c3c2)cc1NC(=O)C(F)(F)F,
6.87,37.6,COc1ncc(-c2cnc3nc(N)nc(C)c3c2)cc1NS(=O)(=O)c1ccc(Cl)s1,
632,,COc1ncc(-c2cnc3nc(N)nc(C)c3c2)cc1N,
117,,COc1ncc(-c2cnc3nc(N)nc(C)c3c2)cc1F,
